# Source: patent publication US6723718B2, “Substituted α, β-anellated butyrolactones” (Bayer Aktiengesellschaft, priority 1998, dated 2004)
# Experiments:
# [1] = test system: permanent focal cerebral ischaemia in the rat (MCA-O); assay: Permanent focal cerebral ischaemia in the rat (MCA-O); type: in vivo; details: 0.01 mg/kg/h intravenous continuous infusion directly up to 4 hours after the occlusion, infarct size determined after 7 days
# Description: Permanent Focal Cerebral Ischaemia in the Rat (MCA-O)
# Under isoflurane anaesthesia, the middle cerebral artery is exposed on one side and the latter and its side branches are irreversibly sealed by means of electrocoagulation. As a result of the intervention a cerebral infarct is formed. During the operation, the body temperature of the animal is kept at 37° C. After wound closure and wearing off of the anaesthesia, the animals are again released into their cage. Substance administration is carried out according to different time schemes and via different administration routes (i.v., i.p.) after occlusion. The infarct size is determined after 7 days. To do this, the brain is removed, worked up histologically and the infarct volume is determined with the aid of a computer-assisted analysis system.
# [2] = test system: subdural haematoma in the rat (SDH); assay: Subdural haematoma in the rat (SDH); type: in vivo; details: 0.01 mg/kg/h intravenous continuous infusion directly up to 4 hours post-trauma
# Description: Subdural Haematoma in the Rat (SDH)
# Under anaesthesia, the animal's own blood is injected subdurally on one side. An infarct is formed under the haematoma. Substance administration is earned out according to different time schemes and via different administration routes (i.v., i.p.).
# The determination of the infarct size is carried out as described in the model of permanent focal ischaemia in the rat (MCA-O).
structure (smiles),measurement,setting,value
C=C1C[C@@H]2COC(=O)[C@]2(Cc2ccc3ccccc3c2)C1 [Example 35],% reduction of infarct volume,[1],38%
same,% reduction of infarct volume,[2],51%
